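A five-concentration, 48-hour dose response in 96-well plates underlies each endpoint, interpolated linearly between surrounding concentrations. TGI: concentration producing complete growth inhibition.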

Among the test systems are UACC-257 melanoma; OVCAR-8 ovarian; MOLT-4 leukemia; HOP-62 NSCLC; SK-MEL-2 melanoma; HOP-92 NSCLC; NCI/ADR-RES ovarian; SK-MEL-5 melanoma; SN12C renal; SK-OV-3 ovarian; UACC-62 melanoma; SR leukemia.
Experiment in all cases: NCI-60 cell line screen, 48 h

As for `COc1cc2c(cc1C)NC(=O)/C2=C\c1cccnc1`, the TGI in the test on UACC-257 melanoma came to 28.4 µM; in the test on OVCAR-8 ovarian, 72.6 µM; in the test on MOLT-4 leukemia, 60.1 µM; with HOP-62 NSCLC, 51.9 µM; in the test with SK-MEL-2 melanoma, 76.1 µM; with HOP-92 NSCLC, 59.5 µM. In addition, the TGI was 36.8 µM in the test with NCI/ADR-RES ovarian, 33.5 µM in the test on SK-MEL-5 melanoma, 37.8 µM in the test on SN12C renal and 43.9 µM with SK-OV-3 ovarian.

In the case of `O=c1ccc(-c2ccc(-n3ccnc3)cc2)nn1CCO`, the TGI in the test with UACC-257 melanoma, with OVCAR-8 ovarian, with MOLT-4 leukemia, with HOP-62 NSCLC, with HOP-92 NSCLC and with UACC-62 melanoma was over 100 µM each time. The TGI in the test with SK-MEL-5 melanoma, in the test with SR leukemia, in the test with SN12C renal and in the test on SK-OV-3 ovarian was over 100 µM throughout.

For `CC(C)C(=O)CC(Sc1ccc(N)cc1)c1ccccc1` (configuration not stated), the TGI in the test with UACC-257 melanoma was over 100 µM; with OVCAR-8 ovarian, 96.9 µM; in the test on MOLT-4 leukemia it was over 100 µM; in the test with HOP-62 NSCLC, 83.9 µM; with SK-MEL-2 melanoma, 61.8 µM; in the test on UACC-62 melanoma it was 72.1 µM. For the same compound, the TGI with NCI/ADR-RES ovarian is 99.6 µM; with SK-MEL-5 melanoma it was 68.2 µM; with SN12C renal it was 64.9 µM; in the test on SK-OV-3 ovarian, 58.4 µM.

Turning to `CC1CC/C(=C\c2ccc(Cl)cc2)C(=O)/C1=C\c1ccc(Cl)cc1` (configuration not stated), the TGI in the test on UACC-257 melanoma was over 100 µM; with OVCAR-8 ovarian it was over 100 µM; in the test on HOP-62 NSCLC, 57.9 µM; in the test on SK-MEL-2 melanoma, 37.9 µM; with HOP-92 NSCLC, over 100 µM; in the test on UACC-62 melanoma, 57.3 µM. The TGI in the test on SK-MEL-5 melanoma is 40.1 µM; with SN12C renal, 95.5 µM; in the test on SK-OV-3 ovarian it was over 100 µM.

`CCCCC1=C(C(=O)N2CCOCC2)C2(OCCO2)C1Cl` (configuration not stated): the TGI in the test on UACC-257 melanoma is 60.9 µM; in the test on OVCAR-8 ovarian, over 100 µM; with MOLT-4 leukemia, over 100 µM; in the test with HOP-62 NSCLC, over 100 µM; with SK-MEL-2 melanoma, 51.6 µM; in the test on HOP-92 NSCLC it was over 100 µM. Besides, the TGI in the test with UACC-62 melanoma was over 100 µM; with NCI/ADR-RES ovarian, over 100 µM; in the test with SK-MEL-5 melanoma, 39.6 µM; in the test on SN12C renal, 50.1 µM; in the test on SK-OV-3 ovarian, over 100 µM.

Take `O=[N+]([O-])/C(C(Cl)=C(Cl)Cl)=C(\Nc1cccc2cccnc12)Sc1ccccc1`: the TGI was 55.7 µM in the test on UACC-257 melanoma; 37.4 µM with MOLT-4 leukemia; 80.7 µM in the test on HOP-62 NSCLC; 82.5 µM with SK-MEL-2 melanoma; 88.4 µM with UACC-62 melanoma; 63.5 µM with NCI/ADR-RES ovarian. For the same compound, the TGI is 87.7 µM in the test on SN12C renal and over 100 µM in the test on SK-OV-3 ovarian.

With `CC(C)/C(Cl)=N/OC(NC(=O)Nc1ccc(Cl)c(Cl)c1)(C(F)(F)F)C(F)(F)F`, the TGI in the test on UACC-257 melanoma is 25.9 µM; in the test on OVCAR-8 ovarian it was 34.8 µM; in the test with MOLT-4 leukemia, 12 µM; in the test with HOP-62 NSCLC, 42.5 µM; in the test on HOP-92 NSCLC, 29.7 µM; in the test with UACC-62 melanoma, 37.2 µM. In addition, the TGI in the test on NCI/ADR-RES ovarian is 31.7 µM; in the test with SK-MEL-5 melanoma it was 29.3 µM; in the test with SR leukemia, over 100 µM; in the test on SN12C renal it was 33.9 µM; in the test on SK-OV-3 ovarian it was 32.3 µM.

Regarding `COC(=O)C1=C(O)C(C(=O)OC)[C@]2(O)[C@H](C(=O)OC)[C@H]1C[C@@H](c1ccc(O)cc1)[C@H]2C(=O)OC` (some centres not stated), the TGI in the test on UACC-257 melanoma was over 100 µM; in the test with OVCAR-8 ovarian, over 100 µM; in the test on MOLT-4 leukemia, over 100 µM; in the test on HOP-62 NSCLC, 55.4 µM; with HOP-92 NSCLC, over 100 µM; in the test on UACC-62 melanoma it was over 100 µM. Moreover, the TGI is over 100 µM in the test with NCI/ADR-RES ovarian; over 100 µM in the test with SK-MEL-5 melanoma; over 100 µM in the test with SR leukemia; over 100 µM in the test on SN12C renal; 61.6 µM with SK-OV-3 ovarian.

For `c1ccc2nc3c(nc2c1)sc1nc2ccccc2n13`, the TGI in the test on UACC-257 melanoma, with OVCAR-8 ovarian, in the test on MOLT-4 leukemia, in the test on HOP-92 NSCLC, with UACC-62 melanoma and with NCI/ADR-RES ovarian was over 100 µM each time. The TGI in the test on SK-MEL-5 melanoma, with SR leukemia, in the test with SN12C renal and with SK-OV-3 ovarian was over 100 µM throughout.

In the case of `CCCOP1(=O)C=C(C)C(Cl)=C(C)C1` (configuration not stated), the TGI was 45.7 µM in the test with UACC-257 melanoma; over 100 µM with OVCAR-8 ovarian; 64.9 µM in the test with MOLT-4 leukemia; over 100 µM in the test with HOP-62 NSCLC; 32.2 µM with SK-MEL-2 melanoma; 48.6 µM in the test with HOP-92 NSCLC. For the same compound, the TGI in the test with UACC-62 melanoma is 32.4 µM; in the test with SK-MEL-5 melanoma, 55.3 µM; in the test with SR leukemia, 61.8 µM; in the test on SN12C renal, 58.6 µM; in the test on SK-OV-3 ovarian it was over 100 µM.

For the compound `CCOC(=O)/C(=C\NC[C@@H](C)O)c1nc2ccccc2[nH]1`, the TGI in the test on UACC-257 melanoma, with OVCAR-8 ovarian, in the test with HOP-62 NSCLC, in the test on HOP-92 NSCLC, in the test on UACC-62 melanoma and in the test with NCI/ADR-RES ovarian was over 100 µM each time. The TGI in the test on SK-MEL-5 melanoma is over 100 µM; in the test on SR leukemia, 84.3 µM; with SN12C renal, over 100 µM; in the test on SK-OV-3 ovarian it was over 100 µM.

`CC(SC(=S)N1CCCC1)C(=O)Nc1nnc(-c2ccc(Cl)cc2)o1` (configuration not stated): the TGI in the test on UACC-257 melanoma, in the test on OVCAR-8 ovarian, in the test on HOP-62 NSCLC, in the test with SK-MEL-2 melanoma, in the test with HOP-92 NSCLC and in the test with UACC-62 melanoma was over 100 µM throughout. Also, the TGI with NCI/ADR-RES ovarian was over 100 µM; in the test with SK-MEL-5 melanoma, 82.8 µM; in the test with SN12C renal, 59.9 µM; in the test on SK-OV-3 ovarian, over 100 µM.

On to `Nc1c(O)c2c(c(O)c1Cl)C(=O)C=CC2=O`, for which the TGI in the test with UACC-257 melanoma was 3.3 µM; in the test on OVCAR-8 ovarian it was 14 µM; in the test on MOLT-4 leukemia, over 87.6 µM; with HOP-62 NSCLC, 15.9 µM; in the test on SK-MEL-2 melanoma, 23.8 µM; in the test with HOP-92 NSCLC, 31.3 µM. Further, the TGI in the test with UACC-62 melanoma was 3.05 µM; with NCI/ADR-RES ovarian it was over 32.6 µM; with SK-MEL-5 melanoma, 2.04 µM; with SN12C renal, 13.7 µM; in the test with SK-OV-3 ovarian, over 60.7 µM.

The values above are taken from PubChem BioAssay (NCI).
